Among the test systems are 786-0; CCRF-CEM; COLO 205; HCT-15; HOP-92; HT-29; LOX IMVI; MDA-MB-435; Malme-3M; NCI/ADR-RES; OVCAR-5; OVCAR-8; RXF 393; SF-295; SK-MEL-2; SK-MEL-5; SN12C; UACC-257; UACC-62; SNB-19.
What all share (experiment): inhibition of tumour cell growth, NCI panel, 48 h

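Growth conditions: 96-well plates. Treatment: test compound, 48 hours, 5 concentrations. Analysis: linear interpolation between bracketing concentrations; unreached endpoints set to highest concentration. GI50 is the concentration that inhibits growth by half.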 Calls of active or inactive are those of the source. Rule as the data show it: active = GI50 up to about 1.1 µM and inactive = higher. Where only a bound is given, the exact number is not on record here.

On to `CCOP(=O)(CC1CC(O)(CNc2cc(Cl)nc(N)n2)C1)OCC` (stereo not given), for which the GI50 was > 100 µM (inactive) in the assay with 786-0; > 100 µM (inactive) with CCRF-CEM; > 100 µM (inactive) with COLO 205; more than 100 µM with HCT-15; > 100 µM (inactive) in the assay on HOP-92; > 100 µM (inactive) in the assay on HT-29. Moreover, the GI50 with LOX IMVI, in the assay with MDA-MB-435, with Malme-3M, in the assay on NCI/ADR-RES, in the assay with OVCAR-5 and with OVCAR-8 was > 100 µM (inactive) in each case. For the same compound, the GI50 in the assay with RXF 393, in the assay with SF-295, with SK-MEL-2, in the assay on SK-MEL-5, in the assay with SN12C and with UACC-257 was > 100 µM (inactive) in each case. Further, the GI50 in the assay on UACC-62 is > 100 µM (inactive).
With `CC(C(=O)ON1C(=O)CCC1=O)c1ccc(C(=O)c2ccccc2)s1` (stereo not given), the GI50 in the assay with 786-0 was > 100 µM (inactive); with CCRF-CEM, > 100 µM (inactive); in the assay with COLO 205, > 100 µM (inactive); in the assay on HCT-15, more than 100 µM; in the assay on HOP-92, > 100 µM (inactive); in the assay on HT-29 it was > 100 µM (inactive). The GI50 with LOX IMVI, in the assay on MDA-MB-435, in the assay with Malme-3M, in the assay on NCI/ADR-RES, with OVCAR-5 and in the assay with OVCAR-8 was > 100 µM (inactive) throughout. Also, the GI50 in the assay on RXF 393, with SF-295, with SK-MEL-2, in the assay with SK-MEL-5, in the assay on SN12C and in the assay with SNB-19 was > 100 µM (inactive) each time. Also, the GI50 in the assay on UACC-257 and with UACC-62 was > 100 µM (inactive) in each case.
On to `CC[n+]1c(/C=C/c2ccc(N(CCCl)CCCl)cc2)ccc2cc(NC(=O)/C=C/c3ccccc3)ccc21`, for which the GI50 in the assay with 786-0 was 0.336 µM (active); in the assay with CCRF-CEM, 0.118 µM (active); with COLO 205, 0.104 µM (active); with HCT-15, 14.2 µM; in the assay with HOP-92, 0.251 µM (active); in the assay on HT-29 it was 0.344 µM (active). The GI50 in the assay on LOX IMVI was 0.329 µM (active); with MDA-MB-435, 0.288 µM (active); with Malme-3M, 0.291 µM (active); with NCI/ADR-RES, 30.9 µM (inactive); with OVCAR-5, 0.748 µM (active); in the assay with OVCAR-8, 0.406 µM (active). Besides, the GI50 is 0.315 µM (active) with RXF 393; 0.45 µM (active) in the assay on SF-295; 0.431 µM (active) with SK-MEL-2; 0.174 µM (active) with SK-MEL-5; 0.261 µM (active) in the assay with SN12C; 0.393 µM (active) in the assay with SNB-19. Besides, the GI50 in the assay with UACC-257 is 0.787 µM (active); in the assay with UACC-62 it was 0.646 µM (active).
In the case of `CC1(C)OCC2OC(n3cnc4c(N)nc(Cl)nc43)C(OS(C)(=O)=O)C2O1` (stereo not given), the GI50 is > 100 µM (inactive) in the assay with 786-0; > 100 µM (inactive) in the assay with CCRF-CEM; > 100 µM (inactive) in the assay with COLO 205; more than 100 µM in the assay on HCT-15; 45.3 µM (inactive) in the assay on HOP-92; > 100 µM (inactive) in the assay with HT-29. Moreover, the GI50 in the assay with LOX IMVI, in the assay on MDA-MB-435, in the assay with Malme-3M, with NCI/ADR-RES, in the assay on OVCAR-5 and with OVCAR-8 was > 100 µM (inactive) in each case. For the same compound, the GI50 in the assay with RXF 393, in the assay on SF-295, in the assay on SK-MEL-2, in the assay on SK-MEL-5, in the assay with SN12C and in the assay with SNB-19 was > 100 µM (inactive) each time. In addition, the GI50 in the assay on UACC-257 and with UACC-62 was > 100 µM (inactive) each time.
Take `O=c1oc2ccc3ccccc3c2cc1-c1nc2ccccc2s1`: the GI50 in the assay with 786-0 was > 100 µM (inactive); in the assay on CCRF-CEM, > 100 µM (inactive); with COLO 205 it was > 100 µM (inactive); in the assay with HCT-15, more than 100 µM; in the assay with HOP-92, > 100 µM (inactive); in the assay on HT-29, > 100 µM (inactive). Besides, the GI50 in the assay with LOX IMVI, in the assay on MDA-MB-435, in the assay with Malme-3M, with NCI/ADR-RES, with OVCAR-5 and in the assay on OVCAR-8 was > 100 µM (inactive) in each case. The GI50 in the assay with RXF 393, with SF-295, in the assay with SK-MEL-2, in the assay with SK-MEL-5, in the assay with SN12C and with UACC-257 was > 100 µM (inactive) each time. Besides, the GI50 in the assay with UACC-62 is > 100 µM (inactive).
For `Cc1ccc(S(=O)(=O)NC(=O)NNc2ccc(F)cc2)cc1`, the GI50 in the assay on 786-0 was > 100 µM (inactive); with CCRF-CEM, > 100 µM (inactive); in the assay on COLO 205 it was > 100 µM (inactive); in the assay on HCT-15, more than 100 µM; in the assay with HOP-92 it was > 100 µM (inactive); with HT-29, > 100 µM (inactive). Also, the GI50 with LOX IMVI was > 100 µM (inactive); in the assay on MDA-MB-435, > 100 µM (inactive); with Malme-3M it was > 100 µM (inactive); in the assay with NCI/ADR-RES, > 44 µM (inactive); with OVCAR-5, > 100 µM (inactive); in the assay with RXF 393 it was > 100 µM (inactive). Besides, the GI50 in the assay with SF-295, in the assay on SK-MEL-2, with SK-MEL-5, with SN12C, with SNB-19 and in the assay on UACC-257 was > 100 µM (inactive) each time. Also, the GI50 in the assay with UACC-62 was > 100 µM (inactive).
Consider `C=CCn1c2ccccc2[n+]2cc([N+](=O)[O-])ccc12`, for which the GI50 in the assay with 786-0 was 46.2 µM (inactive); with CCRF-CEM it was 20.9 µM (inactive); with COLO 205 it was 12.3 µM (inactive); in the assay with HCT-15, 34.5 µM; with HOP-92, 18.9 µM (inactive); with HT-29, 18.3 µM (inactive). Further, the GI50 is 30.5 µM (inactive) with LOX IMVI; 26.4 µM (inactive) in the assay on MDA-MB-435; 15.8 µM (inactive) in the assay with Malme-3M; 57 µM (inactive) with NCI/ADR-RES; 74 µM (inactive) in the assay on OVCAR-5; 27 µM (inactive) with OVCAR-8. Besides, the GI50 in the assay on RXF 393 is 67.3 µM (inactive); in the assay on SF-295, > 100 µM (inactive); in the assay with SK-MEL-2, 27.2 µM (inactive); in the assay on SK-MEL-5, 22 µM (inactive); in the assay on SN12C, 27.3 µM (inactive); with SNB-19 it was 66.2 µM (inactive). In addition, the GI50 in the assay with UACC-257 was 21.3 µM (inactive); in the assay on UACC-62, 28.6 µM (inactive).
`O=C(CC(O)(C(F)(F)Cl)C(F)(F)Cl)CC(O)(C(F)(F)Cl)C(F)(F)Cl`: the GI50 in the assay with 786-0 is 2.89 µM (inactive); with CCRF-CEM it was 2.29 µM (inactive); in the assay on COLO 205, 1.63 µM (inactive); with HCT-15 it was 1.07 µM; in the assay on HOP-92, 0.75 µM (active); in the assay with HT-29 it was 1.65 µM (inactive). The GI50 in the assay on LOX IMVI was 3.83 µM (inactive); with MDA-MB-435, 1.69 µM (inactive); in the assay with Malme-3M, 0.483 µM (active); with NCI/ADR-RES, 2.06 µM (inactive); in the assay on OVCAR-8, 2.58 µM (inactive); in the assay on RXF 393, 1.8 µM (inactive). Besides, the GI50 in the assay with SF-295 was 2.36 µM (inactive); in the assay with SK-MEL-2, 1.13 µM (inactive); in the assay on SK-MEL-5 it was 1.25 µM (inactive); in the assay with SN12C it was 4.65 µM (inactive); in the assay with SNB-19 it was 1.71 µM (inactive); in the assay on UACC-257, 1.41 µM (inactive). For the same compound, in the assay on UACC-62, the GI50 was 0.738 µM (active).
On to `COC(=O)CCC(NC(=O)OC(C)(C)C)C(=O)NC(Cc1ccc(NC(=O)CCCC(C)=O)cc1)C(=O)NC(CCC(=O)OC)C(=O)OC` (stereo not given), for which the GI50 with 786-0 was > 100 µM (inactive); in the assay on CCRF-CEM, > 100 µM (inactive); with COLO 205, > 100 µM (inactive); in the assay on HCT-15, more than 100 µM; in the assay on HOP-92 it was > 100 µM (inactive); in the assay with HT-29, > 100 µM (inactive). In addition, the GI50 in the assay on LOX IMVI, in the assay with MDA-MB-435, with Malme-3M, in the assay with NCI/ADR-RES, in the assay with OVCAR-5 and with OVCAR-8 was > 100 µM (inactive) throughout. In addition, the GI50 in the assay on RXF 393, with SF-295, in the assay on SK-MEL-2, in the assay on SK-MEL-5, in the assay on SN12C and in the assay on SNB-19 was > 100 µM (inactive) in each case. The GI50 in the assay on UACC-257 and in the assay with UACC-62 was > 100 µM (inactive) throughout.
As for `Nc1nnnn1NC(=O)NCCCl`, the GI50 was > 10 µM (inactive) in the assay on 786-0; > 10 µM (inactive) in the assay with CCRF-CEM; > 10 µM (inactive) in the assay with COLO 205; more than 10 µM in the assay with HCT-15; > 10 µM (inactive) in the assay on HOP-92; > 10 µM (inactive) in the assay on HT-29. For the same compound, the GI50 in the assay on LOX IMVI, in the assay with MDA-MB-435, in the assay with Malme-3M, in the assay on NCI/ADR-RES, in the assay on OVCAR-8 and with RXF 393 was > 10 µM (inactive) throughout. The GI50 with SF-295, in the assay on SK-MEL-2, in the assay on SK-MEL-5, with SN12C, in the assay with SNB-19 and in the assay with UACC-257 was > 10 µM (inactive) throughout. Further, the GI50 in the assay on UACC-62 is > 10 µM (inactive).
